Reference: ChEMBL document CHEMBL5030545, “Discovery of clinical candidate Sivopixant (S-600918): Lead optimization of dioxotriazine derivatives as selective P2X3 receptor antagonists” (Bioorg Med Chem Lett, 2021)

What was measured:
[1] = tested on: Rattus norvegicus; assay: Analgesic activity in rat model of partial sciatic nerve ligation-induced neuropathic pain assessed as reversal of allodynia at 3 mg/kg, po measured after 3 hrs relative to control; format: functional
[2] = Oral bioavailability in rat at 1 mg/kg administered as cassette dose; format: ADME, organism-based; settings: in vivo
[3] = Protein binding in rat plasma assessed as unbound fraction at 1 mg/kg administered as cassette dose; format: ADME, organism-based
[4] = Free plasma concentration in rat plasma at 1 mg/kg administered as cassette dose; format: ADME, organism-based; settings: in vivo
[5] = Ratio of plasma concentration in rat measured after 3 hrs to IC50 of P2X3 (unknown origin); format: ADME; settings: in vivo
[6] = Ratio of free plasma concentration in rat measured after 3 hrs to IC50 of P2X3 (unknown origin); format: ADME
[7] = target: T1, P2X purinoceptor 3 (Homo sapiens, UniProt P56373); assay: Antagonist activity at P2X3 receptor (unknown origin)
T1 sequence (P56373 whole entry): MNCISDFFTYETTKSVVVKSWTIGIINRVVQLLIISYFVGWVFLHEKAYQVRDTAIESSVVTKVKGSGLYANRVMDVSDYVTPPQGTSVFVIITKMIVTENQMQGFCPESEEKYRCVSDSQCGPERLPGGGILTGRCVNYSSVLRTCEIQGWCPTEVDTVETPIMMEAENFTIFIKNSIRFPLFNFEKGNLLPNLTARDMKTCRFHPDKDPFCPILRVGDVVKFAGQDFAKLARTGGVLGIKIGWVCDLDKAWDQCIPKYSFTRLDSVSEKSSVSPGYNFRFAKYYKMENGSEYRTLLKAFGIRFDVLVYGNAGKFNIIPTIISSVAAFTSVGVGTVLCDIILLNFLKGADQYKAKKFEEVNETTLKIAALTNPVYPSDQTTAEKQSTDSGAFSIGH

Row | SMILES | bioavailability [2] [%] | fraction unbound [3] | Cp(f) [4] [nM] | Ratio [5] | Ratio [6] | IC50 [7] [nM] | Activity [1] [%]
1 | CC(C)Oc1ccc(/N=c2\[nH]c(=O)n(C[C@H](C)C(=O)O)c(=O)n2Cc2ccc(Cl)cc2)cc1 | 88.8 | 0.068 | 827 | 42.8 | 2.91 |  | 2
2 | Cc1cc(/N=c2\[nH]c(=O)n(C[C@H](C)C(=O)O)c(=O)n2Cc2ccc(Cl)cc2)ccc1OC(C)C | 102 | 0.02 | 924 | 57.8 | 1.16 |  | 13
3 | CC(C)Oc1ccc(/N=c2\[nH]c(=O)n(C[C@H](C)C(=O)O)c(=O)n2Cc2ccc(Cl)cc2)cc1Cl | 82.4 | 0.003 | 1537 | 171.8 | 0.52 |  | 26
4 | CC(C)Oc1ccc(Nc2nc(=O)n(CC(CO)CO)c(=O)n2Cc2ccc(Cl)cc2)cc1Cl | 54.8 | 0.003 | 597 | 89.2 | 0.27 | 6.7 | 
5 | CC(C)Oc1ccc(/N=c2\[nH]c(=O)n(CC(C)(C)C(=O)O)c(=O)n2Cc2ccc(Cl)cc2)cc1Cl | 85.3 | 0.003 | 485 | 72.4 | 0.22 | 6.7 | 
6 | Cc1ccc(Cn2c(=O)n(CC(C)(C)C(=O)O)c(=O)[nH]/c2=N\c2ccc(OC(C)C)c(Cl)c2)cc1 | 30.7 | 0.01 | 139 | 14.2 | 0.14 | 9.8 | 
7 | Cc1ccc(Cn2c(=O)n(CCCC(=O)O)c(=O)[nH]/c2=N\c2ccc(OC(C)C)c(Cl)c2)cc1 | 108 | 0.002 | 3655 | 294.8 | 0.59 |  | 20
8 | CC(C)Oc1ccc(/N=c2\[nH]c(=O)n(C[C@@H](C)C(=O)O)c(=O)n2Cc2ccc(Cl)cc2)cc1Cl | 108 | 0.002 | 1001 | 62.2 | 0.12 |  | 
9 | C[C@@H](Cn1c(=O)[nH]/c(=N\c2ccc(Oc3cnccn3)cc2)n(Cc2ccc(Cl)cc2)c1=O)C(=O)O | 56.5 | 0.018 | 330 | 56.2 | 1.02 | 5.8 | 
10 | C[C@@H](Cn1c(=O)[nH]/c(=N\c2ccc(OC3CCC3)cc2)n(Cc2ccc(Cl)cc2)c1=O)C(=O)O | 54.3 | 0.015 | 462 | 30.4 | 0.46 |  | 
11 | C[C@@H](Cn1c(=O)[nH]/c(=N\c2ccc(Oc3cccnc3)cc2)n(Cc2ccc(Cl)cc2)c1=O)C(=O)O |  |  |  |  |  | 8.6 | 
12 | C[C@@H](Cn1c(=O)[nH]/c(=N\c2ccc(Oc3ccc(F)cn3)cc2)n(Cc2ccc(Cl)cc2)c1=O)C(=O)O | 82.4 | 0.011 | 473 |  |  |  | 
13 | CC(C)COc1ccc(/N=c2\[nH]c(=O)n(C[C@H](C)C(=O)O)c(=O)n2Cc2ccc(Cl)cc2)cc1 | 48.7 | 0.025 | 253 | 11.5 | 0.29 |  | 
14 | C[C@@H](Cn1c(=O)[nH]/c(=N\c2ccc(Oc3cccc(F)n3)cc2)n(Cc2ccc(Cl)cc2)c1=O)C(=O)O | 60 | 0.007 | 456 |  |  |  | 
15 | CC(C)Oc1ccc(/N=c2\[nH]c(=O)n(C[C@@H](O)CO)c(=O)n2Cc2ccc(Cl)cc2)cc1Cl | 63 | 0.001 | 1627 | 284.5 | 0.28 | 5.7 | 
16 | C[C@@H](Cn1c(=O)[nH]/c(=N\c2ccc(Oc3ccncc3)cc2)n(Cc2ccc(Cl)cc2)c1=O)C(=O)O |  |  |  |  |  | 5.2 | 
17 | CC(C)Oc1ccc(/N=c2\[nH]c(=O)n(C[C@H](O)CO)c(=O)n2Cc2ccc(Cl)cc2)cc1Cl |  |  |  |  |  | 10.4 | 
18 | C[C@@H](Cn1c(=O)[nH]/c(=N\c2ccc(Oc3nccs3)cc2)n(Cc2ccc(Cl)cc2)c1=O)C(=O)O | 41.4 | 0.006 | 319 |  |  |  | 
19 | C[C@@H](Cn1c(=O)[nH]/c(=N\c2ccc(Oc3cncc(F)c3)cc2)n(Cc2ccc(Cl)cc2)c1=O)C(=O)O | 74.3 | 0.02 | 529 |  |  |  | 
20 | C[C@@H](Cn1c(=O)[nH]/c(=N\c2ccc(Oc3cccnn3)cc2)n(Cc2ccc(Cl)cc2)c1=O)C(=O)O | 30.2 | 0.014 | 64 | 8.3 | 0.12 | 7.7 | 

More lines, main results first:

Row | bioavailability [2] [%] | fraction unbound [3] | Cp(f) [4] [nM] | Ratio [5] | Ratio [6] | IC50 [7] [nM] | SMILES | Activity [1] [%]
21 | 48.1 | 0.001 | 3095 | 204.9 | 0.2 |  | CC(C)Oc1ccc(Nc2nc(=O)n(CCO)c(=O)n2Cc2ccc(Cl)cc2)cc1Cl | 
22 | 96 | 0.009 | 1126 | 145.2 | 1.31 | 7.8 | CC(C)Oc1ccc(/N=c2\[nH]c(=O)n(C[C@H](C)C(=O)O)c(=O)n2Cc2ccc(Cl)cc2)cc1F | 23
23 | 73.1 | 0.014 | 692 | 98.9 | 1.38 |  | Cc1ccc(Cn2c(=O)n(C[C@H](C)C(=O)O)c(=O)[nH]/c2=N\c2ccc(OC(C)C)c(Cl)c2)cc1 | 3
24 | 43.2 | 0.002 | 1600 | 119.4 | 0.24 |  | CC(C)Oc1ccc(/N=c2\[nH]c(=O)n(CCCC(=O)O)c(=O)n2Cc2ccc(Cl)cc2)cc1Cl | 
25 | 36.2 | 0.003 | 711 | 103.5 | 0.31 | 6.9 | CC(C)Oc1ccc(Nc2nc(=O)n(CCCO)c(=O)n2Cc2ccc(Cl)cc2)cc1Cl | 
26 | 71.2 | 0.003 | 1267 |  |  |  | CC(C)Oc1ccc(Nc2nc(=O)n(CCC(=O)O)c(=O)n2Cc2ccc(Cl)cc2)cc1Cl | 6
27 | 45.6 | 0.021 | 643 | 37.6 | 0.79 |  | C[C@@H](Cn1c(=O)[nH]/c(=N\c2ccc(OCC3CC3)cc2)n(Cc2ccc(Cl)cc2)c1=O)C(=O)O | 
28 | 40.2 | 0.004 | 240 | 48.9 | 0.2 | 4.9 | CC.C[C@@H](Cn1c(=O)[nH]/c(=N\c2ccc(Oc3cc(F)ccn3)cc2)n(Cc2ccc(Cl)cc2)c1=O)C(=O)O | 
